Source: US20080009418A1, “Selective Inhibitors” (Alchemia LTD., priority 2004, published 2008)

Assays:
Human neurokinin (NK1) = target: T1, Human neurokinin (NK1) (Homo sapiens, UniProt P25103); assay: Radioligand binding, human neurokinin NK1 membranes, filtration, [125I]-Substance P; details: compound at 10 μM, [125I]-Substance P
T1 construct: purchased Perkin Elmer Biosignal
Procedure, shortened: (§1)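 Percent inhibition of radioligand binding measured on recombinant human membranes: NK1 with [125I]-Substance P, KOP with [3H]-Diprenorphine. Incubation 1 h at room temperature, then harvest onto 0.3% PEI-soaked filters, cold Tris-HCl pH 7.4 washes and scintillation counting; non-specific binding from reference ligand wells.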

[1] = target: T2, Human melanin-concentrating hormone (MCH1) (Homo sapiens, UniProt Q99705); assay: Radioligand binding, human melanin-concentrating hormone MCH1 membranes, FlashPlate, [125I]-S36057; details: compound at 10 μM; for A6: inhibition of radioligand binding, human melanin-concentrating hormone (MCH1): [125I]-S36057
T2 construct: purchased Perkin Elmer Biosignal
T2 sequence (Q99705 whole entry): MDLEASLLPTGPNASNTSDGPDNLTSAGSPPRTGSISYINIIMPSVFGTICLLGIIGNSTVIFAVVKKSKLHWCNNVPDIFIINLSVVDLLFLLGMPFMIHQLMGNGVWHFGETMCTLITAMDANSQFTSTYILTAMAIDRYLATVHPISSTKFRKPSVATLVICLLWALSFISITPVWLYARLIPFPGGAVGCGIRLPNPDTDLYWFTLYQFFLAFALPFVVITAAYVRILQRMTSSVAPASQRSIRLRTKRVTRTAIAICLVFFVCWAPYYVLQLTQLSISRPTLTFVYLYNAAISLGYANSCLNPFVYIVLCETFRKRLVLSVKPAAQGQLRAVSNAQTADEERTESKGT
Procedure, shortened: (§2)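 Cloned human receptor membranes were coated onto FlashPlate wells and incubated with radioligand and compound (added from a 0.5 mM DMSO daughter plate) for 1 hour at room temperature in the dark. Scintillation counting gave percent inhibition, with DMSO defining total and reference ligand defining non-specific binding.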

Human κ-Opioid (KOP) = target: T3, Human κ-Opioid (KOP) (Homo sapiens, UniProt P41145); assay: Radioligand binding, human κ-opioid (KOP) membranes, filtration, [3H]-Diprenorphine; details: compound at 10 μM, [3H]-Diprenorphine
T3 construct: purchased Perkin Elmer Biosignal
T3 sequence (P41145 whole entry): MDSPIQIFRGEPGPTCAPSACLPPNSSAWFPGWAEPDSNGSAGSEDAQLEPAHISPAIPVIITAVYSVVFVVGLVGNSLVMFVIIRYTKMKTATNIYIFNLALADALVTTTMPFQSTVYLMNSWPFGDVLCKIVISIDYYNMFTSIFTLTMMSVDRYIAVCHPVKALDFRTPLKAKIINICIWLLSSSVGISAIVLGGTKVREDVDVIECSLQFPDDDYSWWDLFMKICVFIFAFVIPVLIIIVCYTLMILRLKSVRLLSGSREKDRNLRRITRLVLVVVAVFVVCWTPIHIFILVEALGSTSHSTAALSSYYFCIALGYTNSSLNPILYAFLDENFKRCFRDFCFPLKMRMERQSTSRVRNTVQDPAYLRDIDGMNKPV
Procedure, shortened: as §1

[2] = target: T4, Human neuropeptide Y (NPY-Y1) (Homo sapiens, UniProt P25929); assay: Radioligand binding, human neuropeptide Y NPY-Y1 membranes, FlashPlate, [125I]-PYY; details: compound at 10 μM, [125I]-PYY
T4 construct: purchased Perkin Elmer Biosignal
T4 sequence (P25929 1-384): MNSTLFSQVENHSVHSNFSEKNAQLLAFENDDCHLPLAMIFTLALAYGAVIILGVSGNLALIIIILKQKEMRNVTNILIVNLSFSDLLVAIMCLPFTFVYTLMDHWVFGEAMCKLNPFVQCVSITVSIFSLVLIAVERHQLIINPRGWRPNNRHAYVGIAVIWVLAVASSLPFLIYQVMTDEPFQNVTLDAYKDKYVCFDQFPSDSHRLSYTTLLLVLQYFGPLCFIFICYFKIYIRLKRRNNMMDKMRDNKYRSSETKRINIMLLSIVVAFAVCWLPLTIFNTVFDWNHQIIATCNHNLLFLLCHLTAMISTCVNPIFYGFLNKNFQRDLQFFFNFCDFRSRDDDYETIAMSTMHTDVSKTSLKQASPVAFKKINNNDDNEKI
Procedure, shortened: as §2

Mouse urotensin (mUR2) = target: T5, Mouse urotensin (mUR2) (Mus musculus, UniProt Q8VIH9); assay: Radioligand binding, mouse urotensin mUR2 membranes, FlashPlate, [125I]-Urotensin II; details: compound at 10 μM, [125I]-Urotensin II
T5 construct: purchased Perkin Elmer Biosignal
T5 sequence (Q8VIH9 1-385): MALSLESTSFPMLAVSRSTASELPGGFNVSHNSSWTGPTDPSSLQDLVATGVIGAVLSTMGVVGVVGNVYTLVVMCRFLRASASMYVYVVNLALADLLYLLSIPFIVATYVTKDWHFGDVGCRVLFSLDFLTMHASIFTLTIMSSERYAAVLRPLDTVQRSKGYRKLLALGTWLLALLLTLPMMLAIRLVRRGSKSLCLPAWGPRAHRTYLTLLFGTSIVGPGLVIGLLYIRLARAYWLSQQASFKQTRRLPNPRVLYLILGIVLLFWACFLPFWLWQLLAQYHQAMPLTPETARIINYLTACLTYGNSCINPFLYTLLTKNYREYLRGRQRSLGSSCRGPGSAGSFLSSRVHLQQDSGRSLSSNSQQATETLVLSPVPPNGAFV
Procedure, shortened: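 Cloned mouse urotensin (mUR2) receptor membranes from Perkin Elmer Biosignal were immobilized in FlashPlate microplates using a proprietary coating. Each well got 19.5 μl buffer, then 0.5 μl of DMSO, reference ligand, or compound. Adding 5 μl of [125I]-Urotensin II, diluted to 5× final concentration in binding buffer, started binding. Plates were sealed with TopSeal-A and incubated 1 hour at room temperature in the dark. Wells were counted for 30 seconds each on a TopCount after a 60-second delay, and percentage inhibition was calculated.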

Human δ-opioid (DOP) = target: T6, Human δ-opioid (DOP) (Homo sapiens, UniProt P41143); assay: Radioligand binding, human δ-opioid (DOP) membranes, FlashPlate, [3H]-Bremazocine; details: compound at 10 μM, [3H]-Bremazocine
T6 construct: purchased Perkin Elmer Biosignal
T6 sequence (P41143 whole entry): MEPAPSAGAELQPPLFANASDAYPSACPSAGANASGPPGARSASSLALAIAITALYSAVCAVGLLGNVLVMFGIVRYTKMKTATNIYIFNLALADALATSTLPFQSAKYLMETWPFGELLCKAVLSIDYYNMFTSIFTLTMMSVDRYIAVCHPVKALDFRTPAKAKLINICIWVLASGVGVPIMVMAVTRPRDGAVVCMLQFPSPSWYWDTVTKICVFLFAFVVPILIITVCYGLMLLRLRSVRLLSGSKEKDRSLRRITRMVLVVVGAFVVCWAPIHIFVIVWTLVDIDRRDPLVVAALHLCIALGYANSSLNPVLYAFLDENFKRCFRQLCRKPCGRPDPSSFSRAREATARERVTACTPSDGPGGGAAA
Procedure, shortened: as §2

Human Melanocortin (MC4) = target: T7, Human Melanocortin (MC4) (Homo sapiens, UniProt P32245); assay: Radioligand binding, human melanocortin MC4 membranes, FlashPlate, [125I]-NDP-αMSH; details: compound at 10 μM, [125I]-NDP-αMSH
T7 construct: purchased Perkin Elmer Biosignal
T7 sequence (P32245 whole entry): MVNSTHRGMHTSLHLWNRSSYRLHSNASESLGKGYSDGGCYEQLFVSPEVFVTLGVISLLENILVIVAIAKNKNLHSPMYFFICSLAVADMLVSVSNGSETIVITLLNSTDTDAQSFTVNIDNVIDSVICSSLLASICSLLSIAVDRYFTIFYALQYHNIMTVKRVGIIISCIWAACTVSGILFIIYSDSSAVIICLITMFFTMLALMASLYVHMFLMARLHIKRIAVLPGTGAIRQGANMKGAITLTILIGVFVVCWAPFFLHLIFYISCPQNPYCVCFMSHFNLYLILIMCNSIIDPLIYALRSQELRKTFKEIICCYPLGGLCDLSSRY
Procedure, shortened: as §2

Human μ-opioid (MOP) = target: T8, Human μ-opioid (MOP) (Homo sapiens, UniProt P35372); assay: Radioligand binding, human μ-opioid (MOP) membranes, FlashPlate, [3H]-Naloxone; details: compound at 10 μM, [3H]-Naloxone
T8 construct: purchased Perkin Elmer Biosignal
T8 sequence (P35372 whole entry): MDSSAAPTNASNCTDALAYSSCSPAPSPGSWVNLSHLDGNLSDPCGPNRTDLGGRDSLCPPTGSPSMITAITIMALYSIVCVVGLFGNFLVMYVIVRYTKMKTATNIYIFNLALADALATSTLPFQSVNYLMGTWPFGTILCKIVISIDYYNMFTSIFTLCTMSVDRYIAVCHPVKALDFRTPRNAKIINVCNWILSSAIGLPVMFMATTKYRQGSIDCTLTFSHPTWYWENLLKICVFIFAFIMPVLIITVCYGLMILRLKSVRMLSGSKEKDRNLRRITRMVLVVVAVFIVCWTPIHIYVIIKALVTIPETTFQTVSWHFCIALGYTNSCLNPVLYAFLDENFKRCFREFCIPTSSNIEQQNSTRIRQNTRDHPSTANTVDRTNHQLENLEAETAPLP
Procedure, shortened: as §2

Human melanocortin (MC5) = target: T9, Human melanocortin (MC5) (Homo sapiens, UniProt P33032); assay: Radioligand binding, human melanocortin MC5 membranes, FlashPlate, [125I]-NDP-αMSH; details: compound at 10 μM, [125I]-NDP-αMSH
T9 construct: purchased Perkin Elmer Biosignal
T9 sequence (P33032 whole entry): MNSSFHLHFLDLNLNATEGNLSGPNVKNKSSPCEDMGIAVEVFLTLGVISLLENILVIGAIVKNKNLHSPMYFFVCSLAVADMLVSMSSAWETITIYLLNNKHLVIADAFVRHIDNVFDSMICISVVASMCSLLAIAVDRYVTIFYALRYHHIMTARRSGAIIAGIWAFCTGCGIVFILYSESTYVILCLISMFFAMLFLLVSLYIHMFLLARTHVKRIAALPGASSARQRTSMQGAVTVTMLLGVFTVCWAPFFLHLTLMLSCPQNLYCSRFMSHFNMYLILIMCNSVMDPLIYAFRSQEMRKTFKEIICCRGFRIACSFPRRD
Procedure, shortened: as §2

Human Melanocortin (MC3) = target: T10, Human Melanocortin (MC3) (Homo sapiens, UniProt P41968); assay: Radioligand binding, human melanocortin MC3 membranes, FlashPlate, [125I]-NDP-αMSH; details: compound at 10 μM, [125I]-NDP-αMSH
T10 construct: purchased Perkin Elmer Biosignal
T10 sequence (P41968 whole entry): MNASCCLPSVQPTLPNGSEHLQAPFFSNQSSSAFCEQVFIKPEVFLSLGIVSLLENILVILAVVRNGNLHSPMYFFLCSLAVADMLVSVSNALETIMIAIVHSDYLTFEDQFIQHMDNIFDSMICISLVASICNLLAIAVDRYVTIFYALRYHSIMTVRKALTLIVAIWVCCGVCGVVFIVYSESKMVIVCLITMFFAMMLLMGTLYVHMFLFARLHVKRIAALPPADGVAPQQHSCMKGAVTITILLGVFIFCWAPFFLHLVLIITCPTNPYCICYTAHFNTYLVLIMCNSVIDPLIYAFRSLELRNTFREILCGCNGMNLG
Procedure, shortened: as §2

Human opioid (ORL1) = target: T11, Human opioid (ORL1) (Homo sapiens, UniProt P41146); assay: Radioligand binding, human opioid ORL1 membranes, FlashPlate, [125I]-Nociceptin; details: compound at 10 μM, [125I]-Nociceptin
T11 construct: purchased Perkin Elmer Biosignal
T11 sequence (P41146 whole entry): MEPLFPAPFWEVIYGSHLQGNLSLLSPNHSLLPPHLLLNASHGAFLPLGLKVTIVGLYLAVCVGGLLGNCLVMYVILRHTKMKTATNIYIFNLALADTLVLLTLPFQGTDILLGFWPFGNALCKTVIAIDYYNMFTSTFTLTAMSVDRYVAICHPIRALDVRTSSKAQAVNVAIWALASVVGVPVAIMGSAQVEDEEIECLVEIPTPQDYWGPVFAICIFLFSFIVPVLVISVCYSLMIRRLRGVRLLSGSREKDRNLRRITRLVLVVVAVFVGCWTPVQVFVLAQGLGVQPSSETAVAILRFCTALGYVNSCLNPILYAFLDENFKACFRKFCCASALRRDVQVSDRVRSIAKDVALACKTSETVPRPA
Procedure, shortened: as §2

T1 sequence (P25103 whole entry): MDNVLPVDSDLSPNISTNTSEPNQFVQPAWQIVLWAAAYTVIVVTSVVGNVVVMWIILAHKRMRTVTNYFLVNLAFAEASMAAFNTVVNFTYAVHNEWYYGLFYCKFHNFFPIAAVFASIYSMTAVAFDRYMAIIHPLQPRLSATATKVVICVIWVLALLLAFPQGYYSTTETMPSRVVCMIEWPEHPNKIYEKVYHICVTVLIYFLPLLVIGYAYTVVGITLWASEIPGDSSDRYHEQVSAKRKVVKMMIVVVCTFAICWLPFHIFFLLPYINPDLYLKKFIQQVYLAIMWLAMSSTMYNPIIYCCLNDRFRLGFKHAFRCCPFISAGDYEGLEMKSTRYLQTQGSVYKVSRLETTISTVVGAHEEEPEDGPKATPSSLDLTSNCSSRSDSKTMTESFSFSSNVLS

Row | Compound | A8: inhibition of radioligand binding, human neurokinin (NK1) (Human neurokinin (NK1)) | A6: inhibition of radioligand binding, human melanin-concentrating hormone (MCH1) [1] | A2: inhibition of radioligand binding, human κ-opioid (KOP) (Human κ-Opioid (KOP)) | A9: inhibition of radioligand binding, human neuropeptide Y (NPY-Y1) [2] | A11: inhibition of radioligand binding, mouse urotensin (mUR2) (Mouse urotensin (mUR2)) | A1: inhibition of radioligand binding, human δ-opioid (DOP) (Human δ-opioid (DOP)) | A4: inhibition of radioligand binding, human melanocortin (MC4) (Human Melanocortin (MC4)) | A7: inhibition of radioligand binding, human μ-opioid (MOP) (Human μ-opioid (MOP)) | A5: inhibition of radioligand binding, human melanocortin (MC5) (Human melanocortin (MC5)) | A3: inhibition of radioligand binding, human melanocortin (MC3) (Human Melanocortin (MC3)) | A10: inhibition of radioligand binding, human opioid (ORL1) (Human opioid (ORL1)) | A8: inhibition of radioligand binding (Human neurokinin (NK1); filtration) | A6: inhibition of radioligand binding ([1]; [125I]-S36057, FlashPlate) | A2: inhibition of radioligand binding (Human κ-Opioid (KOP); filtration) | A9: inhibition of radioligand binding ([2]; FlashPlate) | A11: inhibition of radioligand binding (Mouse urotensin (mUR2); FlashPlate) | A1: inhibition of radioligand binding (Human δ-opioid (DOP); FlashPlate) | A4: inhibition of radioligand binding (Human Melanocortin (MC4); FlashPlate) | A7: inhibition of radioligand binding (Human μ-opioid (MOP); FlashPlate) | A5: inhibition of radioligand binding (Human melanocortin (MC5); FlashPlate) | further results
1 | N=C(N)NCCC(=O)NC1C(OCc2ccc(-c3ccccc3)cc2)OC(COCc2ccccc2)C(O)C1OCc1ccc(Cl)cc1 (stereo not shown) [compound 409] | – | – | – | – | – | – | – | – | – | – | – | – | – | – | – | – | – | – | – | – | A8: inhibition of radioligand binding (Human neurokinin (NK1); human NK1 membranes): + (“+” indicates greater than 50% inhibition at 10 μM); A6: inhibition of radioligand binding ([1]; [125I]-S36057, human MCH1 membranes): + (“+” indicates greater than 50% inhibition at 10 μM); A2: inhibition of radioligand binding (Human κ-Opioid (KOP); human KOP membranes): − (“−” indicates less than 50% inhibition at 10 μM); A9: inhibition of radioligand binding ([2]; human NPY-Y1 membranes): − (“−” indicates less than 50% inhibition at 10 μM); A11: inhibition of radioligand binding (Mouse urotensin (mUR2); mouse mUR2 membranes): − (“−” indicates less than 50% inhibition at 10 μM); A1: inhibition of radioligand binding (Human δ-opioid (DOP); human DOP membranes): − (“−” indicates less than 50% inhibition at 10 μM); A4: inhibition of radioligand binding (Human Melanocortin (MC4); human MC4 membranes): + (“+” indicates greater than 50% inhibition at 10 μM); A7: inhibition of radioligand binding (Human μ-opioid (MOP); human MOP membranes): − (“−” indicates less than 50% inhibition at 10 μM); A5: inhibition of radioligand binding (Human melanocortin (MC5); human MC5 membranes): + (“+” indicates greater than 50% inhibition at 10 μM); A3: inhibition of radioligand binding (Human Melanocortin (MC3); human MC3 membranes): + (“+” indicates greater than 50% inhibition at 10 μM); A10: inhibition of radioligand binding (Human opioid (ORL1); human ORL1 membranes): + (“+” indicates greater than 50% inhibition at 10 μM)
2 | CSC1OC(COCc2ccc(Cl)cc2)C(O)C(OCc2ccc3ccccc3c2)C1NC(=O)CNC(=N)N (stereo not shown) [compound 307] | + (“+” indicates greater than 50% inhibition at 10 μM) | − (“−” indicates less than 50% inhibition at 10 μM) | − (“−” indicates less than 50% inhibition at 10 μM) | − (“−” indicates less than 50% inhibition at 10 μM) | − (“−” indicates less than 50% inhibition at 10 μM) | − (“−” indicates less than 50% inhibition at 10 μM) | + (“+” indicates greater than 50% inhibition at 10 μM) | − (“−” indicates less than 50% inhibition at 10 μM) | + (“+” indicates greater than 50% inhibition at 10 μM) | + (“+” indicates greater than 50% inhibition at 10 μM) | − (“−” indicates less than 50% inhibition at 10 μM) | – | – | – | – | – | – | – | – | – | –
3 | Cc1ccc(CO[C@H]2[C@H](O)[C@@H](CO)OC(NC(=O)CCN)[C@@H]2NC(=O)c2ccccc2)cc1 (stereo partly shown) [compound 357] | − (“−” indicates less than 50% inhibition at 10 μM) | + (“+” indicates greater than 50% inhibition at 10 μM) | − (“−” indicates less than 50% inhibition at 10 μM) | − (“−” indicates less than 50% inhibition at 10 μM) | − (“−” indicates less than 50% inhibition at 10 μM) | − (“−” indicates less than 50% inhibition at 10 μM) | − (“−” indicates less than 50% inhibition at 10 μM) | − (“−” indicates less than 50% inhibition at 10 μM) | − (“−” indicates less than 50% inhibition at 10 μM) | − (“−” indicates less than 50% inhibition at 10 μM) | − (“−” indicates less than 50% inhibition at 10 μM) | – | – | – | – | – | – | – | – | – | –
4 | CSC1O[C@H](COCc2ccc(-c3ccccc3)cc2)[C@@H](O)[C@@H](OCc2ccc(Cl)cc2)[C@H]1NC(=O)CCCN (stereo partly shown) [compound 278] | – | – | – | – | – | – | – | – | – | – | – | + (“+” indicates greater than 50% inhibition at 10 μM) | − (“−” indicates less than 50% inhibition at 10 μM) | − (“−” indicates less than 50% inhibition at 10 μM) | − (“−” indicates less than 50% inhibition at 10 μM) | − (“−” indicates less than 50% inhibition at 10 μM) | − (“−” indicates less than 50% inhibition at 10 μM) | − (“−” indicates less than 50% inhibition at 10 μM) | − (“−” indicates less than 50% inhibition at 10 μM) | − (“−” indicates less than 50% inhibition at 10 μM) | A3: inhibition of radioligand binding (Human Melanocortin (MC3); FlashPlate): − (“−” indicates less than 50% inhibition at 10 μM); A10: inhibition of radioligand binding (Human opioid (ORL1); FlashPlate): − (“−” indicates less than 50% inhibition at 10 μM)
5 | COCC1OC(OCc2ccc3ccccc3c2)C(NC(=O)CCNC(=N)N)C(OCc2ccc3ccccc3c2)C1O (stereo not shown) [compound 249] | – | – | – | – | – | – | – | – | – | – | – | + (“+” indicates greater than 50% inhibition at 10 μM) | + (“+” indicates greater than 50% inhibition at 10 μM) | − (“−” indicates less than 50% inhibition at 10 μM) | − (“−” indicates less than 50% inhibition at 10 μM) | − (“−” indicates less than 50% inhibition at 10 μM) | − (“−” indicates less than 50% inhibition at 10 μM) | + (“+” indicates greater than 50% inhibition at 10 μM) | + (“+” indicates greater than 50% inhibition at 10 μM) | + (“+” indicates greater than 50% inhibition at 10 μM) | A3: inhibition of radioligand binding (Human Melanocortin (MC3); FlashPlate): + (“+” indicates greater than 50% inhibition at 10 μM); A10: inhibition of radioligand binding (Human opioid (ORL1); FlashPlate): − (“−” indicates less than 50% inhibition at 10 μM)
